Patent US9157077B2, “Aminopyrimidine kinase inhibitors” (Jasco Pharmaceuticals, LLC, priority 2009, dated 2015)
Where two headings read alike, the source gives them in different places.

Tests used:
cell lines = test: Selected cell proliferation inhibition data: cytotoxicity and IC50 determination (MTS/PMS, 72 hours), Tables 27 and 28; assay type: cell-based; conditions: Homo sapiens; for inhibition at 30 µM: 30 μM compound; for IC50: 72 hours, MTS
Procedure: Selected Cell Proliferation Inhibition Data
All cells were cultured in media supplemented with 10% FBS except for which are marked specially, in the temperature of 37° C., 5% CO2 and 95% humidity. All culture media were purchased from GIBCO (USA, IMDM Cat. 12200-036; RPMI Medium 1640 Cat. 31800-022; 2-mercaptoethanol Cat. 21985-023).
• CellTiter 96® AQueous MTS reagent powder (Cat. No.: G11 12, Promega. Store MTS Reagent Powder desiccated at 4° C. protected from light.) • Phenazine methosulfate (PMS) (Product No.: P9625, SIGMA. Store PMS Powder desiccated at 4° C. protected from light.) Preparation of PMS Solution:
The following protocol is recommended for the preparation of 21 mL of MTS solution (sufficient for ten 96-well plates). • a. Select a light-protected container or wrap a container with foil. • b. Add 21 mL of DPBS to the container. • c. Weigh out 42 mg of MTS Reagent Powder and add to DPBS. • d. Mix at moderate speed on a magnetic stir plate for 15 minutes or until the MTS is completely dissolved. • e. Measure the pH of the MTS solution. The optimum pH is between pH 6.0 to 6.5. If the solution is above pH 6.5, adjust to pH 6.5 with 1N HC1. • f. Filter-sterilize the MTS solution through a 0.2 μm filter into a sterile, light protected container. • g. Store the MTS solution at −20° C., protected from light. Preparation of the Mixture of MTS/PMS: • a. In order to prepare reagents sufficient for one 96-well plate containing cells cultured in a 100 μL volume, thaw the MTS solution and the PMS solution. It should take approximately 90 minutes at room temperature or 10 minutes in a 37° C. water bath to completely thaw the 20 mL size of MTS solution. […] Remove 2.0 mL of MTS solution from the amber reagent bottle using aseptic technique and transfer to a test tube. • c. Add 100 μL of PMS solution to the 2.0 mL of MTS solution immediately before addition to the culture plate containing cells. • d. Gently swirl the tube to ensure complete mixing of the combined MTS/PMS solution. Equipment:
• 1. The cells were harvested respectively during the logarithmic growth period and counted with hemocytometer. The cell viability was over 98% by trypan blue exclusion. • 2. Cell concentrations were adjusted to 2.22×10^5 or 1.11×10^5 or 5.56×10^4 cells/mL with respective medium. • 3. 90 μL cell suspensions were added to 96-well plates (triplicates for each cell concentration), the final cell densities were 2×10^4 or 1×10^4 or 5×10^3 cells/well. The density of 5×10^3 cells/well was used for the first test. The appropriate cell density was determined and adjusted according to the results of the first test. • 4. The next day, test article or positive drugs were dissolved with DMSO as stock solution at the concentration of 20 mM. • 5. 10 μL drug solution was dispensed in each well (triplicate for each drug concentration). • 6. Plates were cultured for another 72 hours, then measured by means of MTS assay. • 7. MTS/PMS solution was prepared immediately prior to use. 20 μL of the mixture was introduced into each well of the 96-well assay plate containing 100 μL culture medium. (The final reaction volume was 120 μL). • 8. Plate was incubated for 1-4 hours at 37° C. in a humidified 5% CO2 atmosphere. • 9. Absorbance at 490 nm was recorded using SpectraMAX Plus microplate spectrophotometer. Data Analysis:
The software of GraphPad Prism version 5 was used to calculate IC50. The graphical curves were fitted using a nonlinear regression model with a sigmoidal dose.

[1] = target: Enzyme (kinases of Table 30) (Homo sapiens, UniProt P11309); test: IC50 of Compound (nM) (ATP present at Km of enzyme), Table 30; assay type: biochemical
[2] = target: Enzyme (kinases of Table 30) (Homo sapiens, UniProt Q9P1W9); test: as above; assay type: biochemical
[3] = target: Enzyme (kinases of Table 30) (Homo sapiens, UniProt Q86V86); test: as above; assay type: biochemical
[4] = target: T1, Enzyme (kinases of Table 30) (Homo sapiens, UniProt P68400); test: as above; assay type: biochemical; conditions: CK2(h), ATP present at Km of enzyme
T1 construct: IC50 of Compound, CK2(h); other: CK2(h), ATP present at Km of enzyme

[5] = MV4-11 cell line, read-out: Percent inhibition at 30 μM of Compound, MV4-11
[6] = MV4-11 cell line, read-out: IC50 values, MV4-11
[7] = NCI-H929 cell line, read-out: Percent inhibition at 30 μM of Compound, NCI-H929
[8] = NCI-H929 cell line, read-out: IC50 values, NCI-H929
[9] = RPMI 8226 cell line, read-out: Percent inhibition at 30 μM of Compound, RPMI 8226
[10] = RPMI 8226 cell line, read-out: IC50 values, RPMI 8226
[11] = Pim-1(h), ATP present at Km of enzyme, read-out: IC50 of Compound, Pim-1(h)
[12] = Pim-2(h), ATP present at Km of enzyme, read-out: IC50 of Compound, Pim-2(h)
[13] = Pim-3(h), ATP present at Km of enzyme, read-out: IC50 of Compound, Pim-3(h)

Chain of Enzyme (kinases of Table 30) (Homo sapiens, UniProt Q9P1W9) (Q9P1W9 whole entry): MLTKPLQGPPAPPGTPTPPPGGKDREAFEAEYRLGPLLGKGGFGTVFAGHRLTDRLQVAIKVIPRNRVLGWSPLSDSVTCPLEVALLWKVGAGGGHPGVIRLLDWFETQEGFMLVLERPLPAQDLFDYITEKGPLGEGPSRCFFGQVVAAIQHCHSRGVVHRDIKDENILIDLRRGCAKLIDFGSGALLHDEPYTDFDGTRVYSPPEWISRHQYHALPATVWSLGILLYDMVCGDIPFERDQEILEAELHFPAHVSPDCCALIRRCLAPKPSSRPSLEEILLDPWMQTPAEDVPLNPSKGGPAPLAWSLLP
Chain of Enzyme (kinases of Table 30) (Homo sapiens, UniProt P11309) (P11309 whole entry): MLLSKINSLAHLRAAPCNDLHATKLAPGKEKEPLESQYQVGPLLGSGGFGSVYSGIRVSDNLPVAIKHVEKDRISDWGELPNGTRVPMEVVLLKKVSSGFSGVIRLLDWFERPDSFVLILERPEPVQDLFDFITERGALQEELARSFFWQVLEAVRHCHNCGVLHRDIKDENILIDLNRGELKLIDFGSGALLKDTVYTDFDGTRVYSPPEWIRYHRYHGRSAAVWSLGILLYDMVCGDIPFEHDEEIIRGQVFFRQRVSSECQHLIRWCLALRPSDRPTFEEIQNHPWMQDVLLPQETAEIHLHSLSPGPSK
T1 sequence (P68400 whole entry): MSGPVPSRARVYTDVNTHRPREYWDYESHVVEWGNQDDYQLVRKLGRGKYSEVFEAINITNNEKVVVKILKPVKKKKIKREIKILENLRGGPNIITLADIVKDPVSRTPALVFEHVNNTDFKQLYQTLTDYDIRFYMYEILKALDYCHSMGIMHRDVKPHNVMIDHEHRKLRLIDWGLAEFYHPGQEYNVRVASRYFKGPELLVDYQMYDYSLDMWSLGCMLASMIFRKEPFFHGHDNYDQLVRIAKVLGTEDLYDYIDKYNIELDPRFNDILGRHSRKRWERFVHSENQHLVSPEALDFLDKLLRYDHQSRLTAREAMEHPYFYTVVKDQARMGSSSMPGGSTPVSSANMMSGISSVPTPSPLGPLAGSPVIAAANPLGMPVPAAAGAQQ

IC50 [1, 11] [µM]	IC50 [2, 12] [µM]	IC50 [3, 13] [µM]	SMILES	inhibition at 30 µM (cell lines; [5]) [%]	IC50 (cell lines; [6]) [µM]	inhibition at 30 µM (cell lines; [7]) [%]	IC50 (cell lines; [8]) [µM]	inhibition at 30 µM (cell lines; [9]) [%]	IC50 (cell lines; [10]) [µM]	also measured
			Cc1ccc(N2CCN(c3nccc(/C=C4\SC(=O)NC4=O)n3)CC2)cc1 [Example 9, (Z)-5-((2-(4-(p-tolyl)piperazin-1-yl)pyrimidin-4-yl)methylene)thiazolidine-2,4-dione]	91.1	6.78	91.4	11.5	71.2	16.1	
			Nc1cccc2c1CCN(c1nccc(/C=C3\SC(=O)NC3=O)n1)C2 [Example 120, (Z)-5-((2-(5-amino-3,4-dihydroisoquinolin-2(1H)-yl)pyrimidin-4-yl)methylene)thiazolidine-2,4-dione]	95.1	4.05	89.8	2.81	76.4	1.54	
			O=C1NC(=O)/C(=C/c2ccnc(NC3CNc4ccccc4C3)n2)S1 (stereo not drawn) [Example 140, (Z)-5-((2-((1,2,3,4-tetrahydroquinolin-3-yl)amino)pyrimidin-4-yl)methylene)thiazolidine-2,4-dione]	94.3	5.51	96.7	8.84	65.3	11.2	
			O=C1NC(=O)/C(=C/c2ccnc(N3CCCC4NCCCC43)n2)S1 (stereo not drawn) [Example 155, (Z)-5-((2-(octahydro-1,5-naphthyridin-1(2H)-yl)pyrimidin-4-yl)methylene)thiazolidine-2,4-dione]	97.6	12.5	73.7	3.96	53.9		
			O=C1NC(=O)/C(=C/c2ccnc(N3CCC(CNCc4ccc5ccccc5n4)CC3)n2)S1 [Example 180, (Z)-5-((2-(4-(((quinolin-2-ylmethyl)amino)methyl)piperidin-1-yl)pyrimidin-4-yl)methylene)thiazolidine-2,4-dione]	90.7	11	100	10.9	79.7	9.13	
			Cc1cc(CNCC2CCN(c3nccc(/C=C4\SC(=O)NC4=O)n3)CC2)c2ccccc2n1 [Example 181, (Z)-5-((2-(4-((((2-methylquinolin-4-yl)methyl)amino)methyl)piperidin-1-yl)pyrimidin-4-yl)methylene)thiazolidine-2,4-dione]	96.6	1.2	93.5	4.42	82.2	3.41	
			O=C1NC(=O)/C(=C/c2ccnc(N3CCC(CNCc4nccc5ccccc45)CC3)n2)S1 [Example 182, (Z)-5-((2-(4-(((isoquinolin-1-ylmethyl)amino)methyl)piperidin-1-yl)pyrimidin-4-yl)methylene)thiazolidine-2,4-dione]	91.1	2.02	96.5	7.08	90.2	11.9	
			COc1cccc(CNCC2CCN(c3nccc(/C=C4\SC(=O)NC4=O)n3)CC2)n1 [Example 183, (Z)-5-((2-(4-((((6-methoxypyridin-2-yl)methyl)amino)methyl)piperidin-1-yl)pyrimidin-4-yl)methylene)thiazolidine-2,4-dione]	94.4		98.6	4.6	82.3	9.6	
			COc1cccc2ccc(CNCC3CCN(c4nccc(/C=C5\SC(=O)NC5=O)n4)CC3)nc12 [Example 189, (Z)-5-((2-(4-((((8-methoxyquinolin-2-yl)methyl)amino)methyl)piperidin-1-yl)pyrimidin-4-yl)methylene)thiazolidine-2,4-dione]	97.9	4.71	98.5	3.04	99.9	8.32	
			O=C1NC(=O)/C(=C/c2ccnc(N3CCC(CNCc4ccc5cc(F)ccc5n4)CC3)n2)S1 [Example 191, (Z)-5-((2-(4-((((6-fluoroquinolin-2-yl)methyl)amino)methyl)piperidin-1-yl)pyrimidin-4-yl)methylene)thiazolidine-2,4-dione]	87.4	2.4	94	3.26	93.1	6.86	
0.295	0.08	0.263	CCCCN(C)c1nccc(/C=C2\SC(=O)NC2=O)n1 [compound 87]							IC50 [4]: 0.261 µM
0.097	0.089	0.419	Nc1ccc2c(c1)CN(c1nccc(/C=C3\SC(=O)NC3=O)n1)CC2 [compound 90]							IC50 [4]: 0.291 µM
0.137	0.018	0.199	CC1CC(C)CN(c2nccc(/C=C3\SC(=O)NC3=O)n2)C1 (stereo not drawn) [compound 99]							
0.164	0.05	0.436	CC1CCCN(c2nccc(/C=C3\SC(=O)NC3=O)n2)C1 (stereo not drawn) [compound 117]							
			O=C1NC(=O)/C(=C/c2ccnc(N3CCCC4NCCCC43)n2)S1 (stereo not drawn) [compound 155]							IC50 [1]: 0.019 µM; IC50 [2]: 0.014 µM; IC50 [3]: 0.009 µM
> 1	0.104	0.231	NCc1cccc(CNc2nccc(/C=C3\SC(=O)NC3=O)n2)c1 [compound 159]							
0.157	0.142	0.046	O=C1NC(=O)/C(=C/c2ccnc(N3CCC(CNCc4ccccn4)CC3)n2)S1 [compound 172]							
0.058	0.075	0.016	Cc1cccc(CNCC2CCN(c3nccc(/C=C4\SC(=O)NC4=O)n3)CC2)n1 [compound 174]							
0.013	0.015	0.015	O=C1NC(=O)/C(=C/c2ccnc(N3CCC(CNCc4ccc5ccccc5n4)CC3)n2)S1 [compound 180]							
0.079	0.044	0.034	Cc1cc(CNCC2CCN(c3nccc(/C=C4\SC(=O)NC4=O)n3)CC2)c2ccccc2n1 [compound 181]							
0.006	0.023	0.005	O=C1NC(=O)/C(=C/c2ccnc(N3CCC(CNCc4ccc5cc(F)ccc5n4)CC3)n2)S1 [compound 191]							
0.099	0.217	0.109	O=C1NC(=O)/C(=C/c2ccnc(N3CCC(CNCc4cccc(-c5ccc(F)cc5)n4)CC3)n2)S1 [compound 204]							
0.054	0.199	0.038	O=C1NC(=O)/C(=C/c2ccnc(N3CCC(CNCc4cccc(-c5cccs5)n4)CC3)n2)S1 [compound 205]							
